Experimental findings from ChEMBL document CHEMBL4418299, “Compounds useful as csf1 modulators” (2016) are described below.

Bounds are passed on as bounds.

Experiment [1] has as its target Vascular endothelial growth factor receptor 2 (Homo sapiens, UniProt P35968). Nature of the experiment: Displacement of kinase tracer 236 from recombinant human His-tagged KDR cytoplasmic domain (789 to 1356 residues) expressed in baculovirus-infected insect cells measured after 5 hrs by TR-FRET based LanthaScreen assay. In general terms: In TR-FRET formats the signal depends on donor and acceptor labels being close together.

Experiment [2] addresses Macrophage colony-stimulating factor 1 receptor (Homo sapiens, UniProt P07333). Nature of the experiment: Displacement of kinase tracer 236 from recombinant human His-tagged CSF1R cytoplasmic domain (538 to 910 residues) expressed in baculovirus-infected insect cells measured after 5 hrs by TR-FRET based LanthaScreen assay.

Chain of Vascular endothelial growth factor receptor 2 (P35968 whole entry, the tested form may be a part): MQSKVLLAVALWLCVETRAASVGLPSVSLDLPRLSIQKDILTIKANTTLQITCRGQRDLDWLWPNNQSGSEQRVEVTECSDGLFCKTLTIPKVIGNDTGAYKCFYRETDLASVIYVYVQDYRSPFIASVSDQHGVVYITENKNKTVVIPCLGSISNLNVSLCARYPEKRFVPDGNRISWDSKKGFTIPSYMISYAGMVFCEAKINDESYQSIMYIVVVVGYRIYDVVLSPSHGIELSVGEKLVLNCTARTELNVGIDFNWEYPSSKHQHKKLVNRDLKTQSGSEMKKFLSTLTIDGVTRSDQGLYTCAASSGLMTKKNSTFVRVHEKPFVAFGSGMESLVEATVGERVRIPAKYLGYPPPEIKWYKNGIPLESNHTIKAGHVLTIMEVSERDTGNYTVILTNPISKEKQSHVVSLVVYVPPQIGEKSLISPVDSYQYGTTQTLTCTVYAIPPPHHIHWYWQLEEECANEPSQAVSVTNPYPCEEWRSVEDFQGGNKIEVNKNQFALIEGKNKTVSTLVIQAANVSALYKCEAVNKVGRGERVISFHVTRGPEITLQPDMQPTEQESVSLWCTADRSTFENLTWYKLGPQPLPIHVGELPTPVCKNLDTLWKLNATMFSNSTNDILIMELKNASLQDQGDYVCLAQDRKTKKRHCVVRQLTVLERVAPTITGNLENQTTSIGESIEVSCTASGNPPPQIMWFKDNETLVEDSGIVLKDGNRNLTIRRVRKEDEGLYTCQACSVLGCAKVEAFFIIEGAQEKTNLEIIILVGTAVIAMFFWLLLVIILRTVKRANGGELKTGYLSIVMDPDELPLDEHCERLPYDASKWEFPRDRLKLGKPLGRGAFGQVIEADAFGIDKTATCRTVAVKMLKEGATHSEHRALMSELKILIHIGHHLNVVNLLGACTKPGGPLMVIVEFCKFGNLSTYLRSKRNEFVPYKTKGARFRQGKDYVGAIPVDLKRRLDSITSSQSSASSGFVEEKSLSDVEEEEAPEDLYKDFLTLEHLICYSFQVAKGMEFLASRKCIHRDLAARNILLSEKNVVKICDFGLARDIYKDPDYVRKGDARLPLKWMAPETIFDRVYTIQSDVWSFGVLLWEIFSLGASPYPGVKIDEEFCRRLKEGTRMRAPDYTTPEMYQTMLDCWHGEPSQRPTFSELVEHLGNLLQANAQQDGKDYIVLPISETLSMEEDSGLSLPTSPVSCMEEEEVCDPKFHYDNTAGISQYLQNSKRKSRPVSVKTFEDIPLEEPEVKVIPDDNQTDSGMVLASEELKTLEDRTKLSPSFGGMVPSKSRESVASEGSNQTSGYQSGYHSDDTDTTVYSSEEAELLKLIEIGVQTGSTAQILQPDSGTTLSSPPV
Chain of Macrophage colony-stimulating factor 1 receptor (P07333 whole entry, the tested form may be a part): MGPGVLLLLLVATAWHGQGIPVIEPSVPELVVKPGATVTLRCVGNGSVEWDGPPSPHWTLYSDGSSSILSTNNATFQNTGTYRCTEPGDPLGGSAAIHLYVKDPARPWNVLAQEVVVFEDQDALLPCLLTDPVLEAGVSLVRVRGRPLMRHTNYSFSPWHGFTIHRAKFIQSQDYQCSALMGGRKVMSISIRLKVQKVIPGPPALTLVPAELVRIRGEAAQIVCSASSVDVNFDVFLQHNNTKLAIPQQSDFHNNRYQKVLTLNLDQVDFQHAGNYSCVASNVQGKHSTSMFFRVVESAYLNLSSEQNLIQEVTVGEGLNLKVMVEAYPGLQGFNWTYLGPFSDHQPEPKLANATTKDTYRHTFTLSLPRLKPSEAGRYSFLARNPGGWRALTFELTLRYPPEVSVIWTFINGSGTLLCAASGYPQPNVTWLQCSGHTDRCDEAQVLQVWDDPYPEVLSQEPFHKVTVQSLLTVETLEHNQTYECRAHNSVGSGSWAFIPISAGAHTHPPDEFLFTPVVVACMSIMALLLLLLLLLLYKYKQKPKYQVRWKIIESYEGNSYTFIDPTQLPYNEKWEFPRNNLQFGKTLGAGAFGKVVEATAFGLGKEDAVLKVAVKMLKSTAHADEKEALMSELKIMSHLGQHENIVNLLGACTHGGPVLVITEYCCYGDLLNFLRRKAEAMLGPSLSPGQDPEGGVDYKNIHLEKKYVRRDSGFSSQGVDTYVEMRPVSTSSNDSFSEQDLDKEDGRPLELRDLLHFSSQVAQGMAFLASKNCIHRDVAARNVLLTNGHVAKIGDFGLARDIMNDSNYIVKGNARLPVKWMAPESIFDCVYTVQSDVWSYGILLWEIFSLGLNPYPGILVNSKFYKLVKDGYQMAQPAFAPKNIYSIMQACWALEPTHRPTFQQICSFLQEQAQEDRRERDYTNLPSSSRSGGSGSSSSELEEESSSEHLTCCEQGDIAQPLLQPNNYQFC

For the compound `Cc1ccc(F)c(NC(=O)Cc2ccc(-n3c4c(c5ncnc(N)c53)COC4)cc2)c1`, the 50% inhibitory concentration (IC50) was greater than 200 nM in experiment [1] and 10 to 200 nM in experiment [2].
In the case of `COc1ccc(NC(=O)Cc2ccc(-n3c4c(c5ncnc(N)c53)CCC4)cc2)c(F)c1`, the results for the IC50 in experiment [1] and in experiment [2] were greater than 200 nM and 10 to 200 nM, respectively.
For `CC(C)(C)c1cc(NC(=O)Cc2ccc(-n3c4c(c5ncnc(N)c53)CCC4)cc2)n(-c2ccccc2)n1`, the half-maximal inhibitory concentration (IC50) in experiment [1] and in experiment [2] was less than 10 nM each time.
Regarding `Nc1ncnc2c3c(n(-c4ccc(CC(=O)Nc5ccc(Cl)c(C(F)(F)F)c5)cc4)c12)COC3`, the IC50 in experiment [1] was greater than 200 nM; in experiment [2] it was less than 10 nM.
Turning to `CC(C)c1cn(C)c2ccc(CC(=O)Nc3ccc(-n4c5c(c6ncnc(N)c64)CCC5)cc3)cc12`, the IC50 in experiment [1] is greater than 200 nM; in experiment [2] it was 10 to 200 nM.
On the same counts, the results for `COc1ccc(NC(=O)Cc2ccc(-n3c4c(c5ncnc(N)c53)CCC4)cc2)cn1` are greater than 200 nM and 10 to 200 nM.
In the same order, the values of `COc1cc(CC(=O)Nc2ccc(-n3c4c(c5ncnc(N)c53)CCC4)cc2)ccc1C` are greater than 200 nM and less than 10 nM.
In the same order, the values of `COc1cc(-n2c3c(c4ncnc(N)c42)COC3)ccc1NC(=O)Cc1ccc(OC(F)(F)F)cc1` are greater than 200 nM and 6 nM.
For `Nc1ncnc2c3c(n(-c4ccc(CC(=O)Nc5ccc(Cl)c(C(F)(F)F)c5)cc4)c12)CCC3`, the results for the IC50 in experiment [1] and in experiment [2] were greater than 200 nM and 9 nM, respectively.
On the same counts, the results for `COc1cc(-n2c3c(c4ncnc(N)c42)CCC3)ccc1NC(=O)Cc1ccc2c(c1)CCN2CC(F)(F)F` are greater than 200 nM and less than 10 nM.
`Nc1ncnc2c3c(n(-c4ccc(NC(=O)Cc5ccc(Cl)nn5)cc4)c12)CCC3`: the IC50 is greater than 200 nM in experiment [1] and 10 to 200 nM in experiment [2].
In the same order, the values of `Nc1ncnc2c3c(n(-c4ccc(NC(=O)Cc5ccc6c(c5)CCN6CC(F)(F)F)cc4)c12)CCC3` are greater than 200 nM and less than 10 nM.
As for `Nc1ncnc2c3c(n(-c4ccc(CC(=O)Nc5ccc6c(c5)CCC6)cc4)c12)CCC3`, the IC50 in experiment [1] was 10 to 200 nM; in experiment [2] it was less than 10 nM.
With `Cc1cc(CC(=O)Nc2ccc(-n3c4c(c5ncnc(N)c53)CCC4)cc2)on1`, the results for the IC50 in experiment [1] and in experiment [2] were greater than 200 nM and 10 to 200 nM, respectively.
Turning to `Nc1ncnc2c3c(n(-c4ccc(CC(=O)Nc5nc(C(F)(F)F)cs5)cc4)c12)CCC3`, the figures for the IC50 in experiment [1] and in experiment [2] were greater than 200 nM and 10 to 200 nM, respectively.
`CC(C(=O)Nc1ccc(-n2c3c(c4ncnc(N)c42)CCC3)cc1)c1ccccc1` (stereo not drawn): the IC50 in experiment [1] is greater than 200 nM; in experiment [2], 10 to 200 nM.
With `Nc1ncnc2c3c(n(-c4ccc(NC(=O)Cc5ccc(OC(F)(F)F)cc5)cc4)c12)COC3`, the IC50 in experiment [1] was greater than 200 nM; in experiment [2], less than 10 nM.
For `COc1cc(-n2c3c(c4ncnc(N)c42)CCC3)ccc1CC(=O)Nc1ccnc(C(F)(F)F)c1`, the concentration for half-maximal inhibition (IC50) is greater than 200 nM in experiment [1] and less than 10 nM in experiment [2].
In the case of `Nc1ncnc2c3c(n(-c4ccc(CC(=O)Nc5ccccc5)cc4)c12)CCC3`, the 50% inhibitory concentration (IC50) in experiment [1] is greater than 200 nM; in experiment [2], 10 to 200 nM.
Regarding `COc1cc(-n2c3c(c4ncnc(N)c42)CCC3)ccc1CC(=O)Nc1ccc(Cl)c(Cl)c1`, the IC50 in experiment [1] was greater than 200 nM; in experiment [2], less than 10 nM.
In the same order, the values of `Cc1ccc(CC(=O)Nc2ccc(-n3c4c(c5ncnc(N)c53)COC4)cc2)c(F)c1` are greater than 200 nM and 10 to 200 nM.
With `COc1ccc(CC(=O)Nc2ccc(-n3c4c(c5ncnc(N)c53)CCC4)cc2)cc1C`, the 50% inhibitory concentration (IC50) is greater than 200 nM in experiment [1] and less than 10 nM in experiment [2].
As to `COc1ccc(CC(=O)Nc2ccc(-n3c4c(c5ncnc(N)c53)COC4)cc2)cc1C(F)(F)F`, the 50% inhibitory concentration (IC50) in experiment [1] is greater than 200 nM; in experiment [2], less than 10 nM.
In the same order, the values of `Cc1ccc(CC(=O)Nc2ccc(-n3c4c(c5ncnc(N)c53)CCC4)cc2)c(F)c1` are 10 to 200 nM and less than 10 nM.
For the compound `Nc1ncnc2c3c(n(-c4ccc(CC(=O)Nc5ccc(C(F)(F)F)nc5)cc4)c12)CCC3`, the concentration for half-maximal inhibition (IC50) in experiment [1] is greater than 200 nM; in experiment [2], 10 to 200 nM.
In the case of `Cc1ccc(CC(=O)Nc2ccc(-n3c4c(c5ncnc(N)c53)CCC4)cc2)cc1F`, the half-inhibitory concentration (IC50) was greater than 200 nM in experiment [1] and less than 10 nM in experiment [2].
Turning to `Nc1ncnc2c3c(n(-c4ccc(NC(=O)Cc5nc6ccccc6s5)cc4)c12)CCC3`, the half-inhibitory concentration (IC50) is greater than 200 nM in experiment [1] and 10 to 200 nM in experiment [2].
For the compound `Nc1ncnc2c3c(n(-c4ccc(CC(=O)Nc5ccc(Cl)c(Cl)c5)cc4)c12)CCC3`, the IC50 was greater than 200 nM in experiment [1] and less than 10 nM in experiment [2].
In the same order, the values of `Nc1ncnc2c3c(n(-c4ccc(CC(=O)Nc5ccc(C(F)(F)F)nn5)cc4)c12)CCC3` are greater than 200 nM and 10 to 200 nM.
In the case of `COc1ccc(CC(=O)Nc2ccc(-n3c4c(c5ncnc(N)c53)CCC4)cc2)cc1C(F)(F)F`, the results for the half-maximal inhibitory concentration (IC50) in experiment [1] and in experiment [2] were greater than 200 nM and less than 10 nM, respectively.
On to `Nc1ncnc2c3c(n(-c4ccc(NC(=O)Cc5ccc(Cl)c(C(F)(F)F)c5)cc4)c12)COC3`, for which the IC50 in experiment [1] was greater than 200 nM; in experiment [2], less than 10 nM.
With `COc1ccc(CC(=O)Nc2ccc(-n3c4c(c5ncnc(N)c53)CCC4)cc2)cc1N(C)C`, the 50% inhibitory concentration (IC50) in experiment [1] is greater than 200 nM; in experiment [2], 10 to 200 nM.
As to `Nc1ncnc2c3c(n(-c4ccc(NC(=O)Cc5ccc(C(F)(F)F)nn5)cc4)c12)CCC3`, the IC50 in experiment [1] is greater than 200 nM; in experiment [2], 10 to 200 nM.
`COc1ccc(NC(=O)Cc2ccc(-n3c4c(c5ncnc(N)c53)CCC4)cc2)cc1F`: the values for the IC50 in experiment [1] and in experiment [2] were greater than 200 nM and less than 10 nM, respectively.
In the case of `Nc1ncnc2c3c(n(-c4ccc(CC(=O)N5CCOc6ccccc65)cc4)c12)CCC3`, the IC50 was greater than 200 nM in experiment [1] and less than 10 nM in experiment [2].
As for `Nc1ncnc2c3c(n(-c4ccc(CC(=O)Nc5ccc(OC(F)(F)F)cc5)cc4)c12)CCC3`, the figures for the half-inhibitory concentration (IC50) in experiment [1] and in experiment [2] were greater than 200 nM and 10 to 200 nM, respectively.
With `Nc1ncnc2c3c(n(-c4ccc(CC(=O)Nc5ccc(C(F)(F)F)c(Cl)c5)cc4)c12)CCC3`, the values for the IC50 in experiment [1] and in experiment [2] were greater than 200 nM and less than 10 nM, respectively.
Turning to `COc1cc(-n2c3c(c4ncnc(N)c42)CCC3)ccc1NC(=O)Cc1ccc(OC(F)(F)F)cc1`, the IC50 in experiment [1] was greater than 200 nM; in experiment [2], less than 10 nM.
For `COc1ccc(NC(=O)Cc2ccc(-n3c4c(c5ncnc(N)c53)COC4)cc2)cc1C(F)(F)F`, the half-maximal inhibitory concentration (IC50) was 10 to 200 nM in experiment [1] and less than 10 nM in experiment [2].
As to `Nc1ncnc2c3c(n(-c4ccc(CC(=O)Nc5ccc(C(F)(F)F)cn5)cc4)c12)CCC3`, the results for the half-inhibitory concentration (IC50) in experiment [1] and in experiment [2] were greater than 200 nM and 10 to 200 nM, respectively.
Take `Nc1ncnc2c3c(n(-c4ccc(CC(=O)Nc5nc(C(F)(F)F)co5)cc4)c12)CCC3`: the results for the concentration for half-maximal inhibition (IC50) in experiment [1] and in experiment [2] were greater than 200 nM and 10 to 200 nM, respectively.
Consider `Nc1ncnc2c3c(n(-c4ccc(CC(=O)Nc5cc(C(F)(F)F)ccc5F)cc4)c12)CCC3`, for which the IC50 was 10 to 200 nM in experiment [1] and less than 10 nM in experiment [2].
For `Nc1ncnc2c3c(n(-c4ccc(CC(=O)Nc5ccc(C(F)(F)F)cn5)cc4)c12)COC3`, the IC50 is greater than 200 nM in experiment [1] and 10 to 200 nM in experiment [2].
On to `COc1cc(CC(=O)Nc2ccc(-n3c4c(c5ncnc(N)c53)COC4)cc2)ccc1C`, for which the concentration for half-maximal inhibition (IC50) in experiment [1] was greater than 200 nM; in experiment [2] it was 10 to 200 nM.
For the compound `Nc1ncnc2c3c(n(-c4ccc(NC(=O)Cc5ccc6c(c5)CCC6)cc4)c12)CCC3`, the values for the IC50 in experiment [1] and in experiment [2] were greater than 200 nM and less than 10 nM, respectively.
On to `COc1cc(-n2c3c(c4ncnc(N)c42)CCC3)ccc1NC(=O)Cc1ccc(OC)c(C(F)(F)F)c1`, for which the half-inhibitory concentration (IC50) in experiment [1] is greater than 200 nM; in experiment [2] it was 10 to 200 nM.
For the compound `COc1ccc(NC(=O)Cc2ccc(-n3c4c(c5ncnc(N)c53)CCC4)cc2OC)cc1F`, the figures for the half-maximal inhibitory concentration (IC50) in experiment [1] and in experiment [2] were greater than 200 nM and less than 10 nM, respectively.
Take `Nc1ncnc2c3c(n(-c4ccc(NC(=O)CCc5c[nH]c6ccccc56)cc4)c12)CCC3`: the IC50 in experiment [1] and in experiment [2] was greater than 200 nM throughout.
Take `Cn1ccc2cc(NC(=O)Cc3ccc(-n4c5c(c6ncnc(N)c64)CCC5)cc3)ccc21`: the results for the half-inhibitory concentration (IC50) in experiment [1] and in experiment [2] were greater than 200 nM and less than 10 nM, respectively.
Regarding `Cc1ccc(F)c(NC(=O)Cc2ccc(-n3c4c(c5ncnc(N)c53)CCC4)cc2)c1`, the IC50 was 10 to 200 nM in experiment [1] and less than 10 nM in experiment [2].
For the compound `COc1cc(-n2c3c(c4ncnc(N)c42)CCC3)ccc1CC(=O)Nc1ccc(OC(F)(F)F)cc1`, the concentration for half-maximal inhibition (IC50) in experiment [1] was greater than 200 nM; in experiment [2] it was less than 10 nM.
Turning to `Nc1ncnc2c3c(n(-c4ccc(CC(=O)NC5CCOCC5)cc4)c12)CCC3`, the IC50 in experiment [1] and in experiment [2] was greater than 200 nM throughout.
For the compound `COc1cc(-n2c3c(c4ncnc(N)c42)CCC3)ccc1CC(=O)Nc1ccc(Cl)c(C(F)(F)F)c1`, the values for the IC50 in experiment [1] and in experiment [2] were greater than 200 nM and less than 10 nM, respectively.
Take `COc1cc(-n2c3c(c4ncnc(N)c42)CCC3)ccc1CC(=O)Nc1ccc(OC)c(C(F)(F)F)c1`: the concentration for half-maximal inhibition (IC50) was greater than 200 nM in experiment [1] and less than 10 nM in experiment [2].
In the case of `Nc1ncnc2c3c(n(-c4ccc(CC(=O)Nc5ccnc(C(F)(F)F)c5)cc4)c12)CCC3`, the concentration for half-maximal inhibition (IC50) in experiment [1] and in experiment [2] was 10 to 200 nM in each case.
As for `COc1ccc(CC(=O)Nc2ccc(-n3c4c(c5ncnc(N)c53)COC4)cc2)cc1C`, the results for the half-inhibitory concentration (IC50) in experiment [1] and in experiment [2] were greater than 200 nM and less than 10 nM, respectively.
Turning to `COc1ccc(NC(=O)Cc2ccc(-n3c4c(c5ncnc(N)c53)CCC4)cc2)cc1C(F)(F)F`, the IC50 was 10 to 200 nM in experiment [1] and less than 10 nM in experiment [2].
Regarding `COc1cc(-n2c3c(c4ncnc(N)c42)CCC3)ccc1CC(=O)Nc1cc(C(F)(F)F)ccc1F`, the IC50 in experiment [1] is greater than 200 nM; in experiment [2], less than 10 nM.
As to `Nc1ncnc2c3c(n(-c4ccc(CC(=O)Nc5ccc(OC(F)(F)F)cc5)cc4)c12)COC3`, the results for the IC50 in experiment [1] and in experiment [2] were greater than 200 nM and 10 to 200 nM, respectively.

Usually IC50 stands for the midpoint of a concentration-inhibition curve.
